# Test results from ChEMBL document CHEMBL5046296 (J Med Chem, 2022).
# Active and inactive are the calls of the source. The rule behind the calls is not given here.
# Key:
# [1] = Ratio of drug concentration in spinal cord to plasma in CCI induced thermal hyperalgesia Sprague-Dawley rat model at 0.3 mg/kg, po measured at 5.75 hrs post dose; type: ADME, organism-based
# [2] = Ratio of drug concentration in spinal cord to plasma in CCI induced thermal hyperalgesia Sprague-Dawley rat model at 1 mg/kg, po measured at 5.75 hrs post dose; type: ADME, organism-based
# Cytochrome P450 = Cytochrome P450 (Homo sapiens, UniProt P04798+P05177+P05181+P08684+P10632+P10635+P11509+P11712+P13584+P20813+P20815+P20853+P24462+P24903+P33260+P33261+P51589+P78329+P98187+Q02928+Q08477+Q16678+Q16696+Q5TCH4+Q6VVX0+Q7Z449+Q8TAV3+Q96SQ9+Q9HB55); test: Metabolic stability in human liver microsomes assessed as CYP450-mediated metabolism by measuring parent compound remaining at 0.5 uM incubated for 10 mins in presence of NADPH by LC-MS/MS analysis; type: ADME; details: read-out: Stability
# [3] = Protein binding in rat plasma assessed as unbound fraction at 10 uM measured after 5 hrs by LC-MS/MS analysis; type: ADME, cell-free
# [4] = Permeability of compound at pH 7.4 measured after 4 hrs by PAMPA assay; type: ADME; details: read-out: permeability
# Aorta = test: Cardiotoxicity in rat aortic ring assessed as relaxation of phenylephrine induced aortic ring contraction at 10 uM incubated for 1 hr; type: toxicity, tissue-based; set-up: scale not given: the % may be the effect or the level left
# [5] = Protein binding in cynomolgus monkey plasma assessed as unbound fraction at 10 uM incubated for 5 hrs by LC-MS/MS analysis; type: ADME, cell-free, Macaca fascicularis
# [6] = Metabolic stability in mouse liver microsomes assessed as half life; type: ADME, Microsome
# [7] = Metabolic stability in cynomolgus monkey liver microsomes assessed as half life; type: ADME, Macaca fascicularis, Microsome
# Cytochrome P450 2B6 = Cytochrome P450 2B6 (Homo sapiens, UniProt P20813); test: Inhibition of CYP2B6 (unknown origin); type: ADME
# Cytochrome P450 3A4 [8] = molecular target: T1, Cytochrome P450 3A4 (Homo sapiens, UniProt P08684); test: Time dependent inhibition of CYP3A4 (unknown origin) using BSF as substrate measured at 5 mins; type: ADME
# Cytochrome P450 3A4 [9] = molecular target: T1, Cytochrome P450 3A4; test: Time dependent inhibition of CYP3A4 (unknown origin) using BSF as substrate measured at 30 mins; type: ADME
# [10] = molecular target: ATP-binding cassette sub-family C member 2 (Homo sapiens, UniProt Q92887); test: Inhibition of MRP2 (unknown origin)
# [11] = molecular target: Organic anion transporter 3 (Homo sapiens, UniProt Q8TCC7); test: Inhibition of OAT3 (unknown origin)
# [12] = molecular target: Sodium-dependent noradrenaline transporter (Homo sapiens, UniProt P23975); test: Inhibition of NET (unknown origin); type: toxicity
# Rattus norvegicus [13] = test: Analgesic activity in streptozotocin induced diabetic peripheral neuropathic mechanical allodynia in overnight fasted Sprague-Dawley rat model assessed as reduction in pain response at 3 mg/kg, po measured after 5.5 hrs post treatment; type: functional; set-up: scale not given: the % may be the effect or the level left
# [14] = Drug concentration in Sprague-Dawley rat spinal cord with CCI induced thermal hyperalgesia at 0.1 mg/kg, po measured at 5.75 hrs post dose; type: ADME, organism-based; details: read-out: Ct
# [15] = Drug uptake in Spinal cord of CCI induced thermal hyperalgesia Sprague-Dawley rat model assessed as spinal occupancy at 0.1 mg/kg, po measured at 5.75 hrs post dose in presence of [3H]BMT-046091; type: ADME, organism-based; details: in vivo
# [16] = Drug uptake in Spinal cord of CCI induced thermal hyperalgesia Sprague-Dawley rat model assessed as spinal occupancy at 1 mg/kg, po measured at 5.75 hrs post dose in presence of [3H]BMT-046091; type: ADME, organism-based; details: in vivo
# [17] = Cmax in overnight fasted Sprague-Dawley rat plasma with streptozotocin induced diabetic peripheral neuropathic mechanical allodynia at 0.3 mg/kg, po measured at 5.5 hrs post dose; type: ADME, organism-based; set-up: route oral, time 5.5 hrs, dose 0.3 mg/kg
# [18] = Cmax in overnight fasted Sprague-Dawley rat plasma with streptozotocin induced diabetic peripheral neuropathic mechanical allodynia at 3 mg/kg, po measured at 5.5 hrs post dose; type: ADME, organism-based; set-up: route oral, time 5.5 hrs, dose 3 mg/kg
# [19] = Ratio of drug concentration in spinal cord to plasma of overnight fasted Sprague-Dawley rat model with streptozotocin induced diabetic peripheral neuropathic mechanical allodynia at 0.3 mg/kg, po measured at 5.5 hrs post dose; type: ADME, organism-based
# [20] = Ratio of drug concentration in spinal cord to plasma of overnight fasted Sprague-Dawley rat model with streptozotocin induced diabetic peripheral neuropathic mechanical allodynia at 3 mg/kg, po measured at 5.5 hrs post dose; type: ADME, organism-based
# Rattus norvegicus [21] = test: Analgesic activity in streptozotocin induced diabetic peripheral neuropathic mechanical allodynia in overnight fasted Sprague-Dawley rat model assessed as efficacy at 3 mg/kg, po measured at 5.5 hrs post dose; type: functional
# [22] = Drug concentration in naive Sprague-Dawley rat spinal cord at 10 mg/kg, po measured at 5.25 hrs post dose; type: ADME, organism-based; details: read-out: Ct
# [23] = Ratio of drug concentration in spinal cord to plasma in Sprague-Dawley rat at 30 mg/kg, po measured at 5.25 hrs post dose; type: ADME, organism-based
# [24] = Toxicity in naive Sprague-Dawley rat assessed as motor impairment at 3 to 30 mg/kg, po measured after 5 hrs by rotarod test; type: organism-based; details: in vivo, dose 3-30 mg/kg
# [25] = Cmax in mouse at 3 mg/kg, po; type: ADME, organism-based; set-up: route oral, dose 3 mg/kg; details: in vivo
# [26] = AUC (infinity) in rat at 3 mg/kg, po; type: ADME, organism-based; set-up: route oral, time infinity, dose 3 mg/kg; details: in vivo
# [27] = AUC (infinity) in dog at 3 mg/kg, po; type: ADME, organism-based, Canis lupus familiaris; set-up: route oral, time infinity, dose 3 mg/kg; details: in vivo
# [28] = AUC (infinity) in monkey at 3 mg/kg, po; type: ADME, organism-based, Macaca mulatta; set-up: route oral, time infinity, dose 3 mg/kg; details: rhesus monkey, in vivo
# [29] = Apparent elimination half life in rat at 2 mg/kg, iv; type: ADME, organism-based; details: in vivo, read-out: betat1/2(app) (converted)
# [30] = Clearance in monkey at 2 mg/kg, iv; type: ADME, organism-based, Macaca mulatta; details: rhesus monkey, in vivo
# [31] = Volume of distribution at steady state in mouse at 2 mg/kg, iv; type: ADME, organism-based; details: in vivo, read-out: Vdss
# [32] = molecular target: BMP-2-inducible protein kinase (Homo sapiens, UniProt Q9NSY1); test: Inhibition of BIKE (unknown origin)
# [33] = molecular target: Cyclin-G-associated kinase (Homo sapiens, UniProt O14976); test: Inhibition of GAK (unknown origin)
# [34] = molecular target: Citron Rho-interacting kinase (Homo sapiens, UniProt O14578); test: Inhibition of CRIK (unknown origin)
# [35] = molecular target: MAP kinase-interacting serine/threonine-protein kinase 2 (Homo sapiens, UniProt Q9HBH9); test: Inhibition of MNK2 (unknown origin)
# [36] = Solubility of the compound at pH 1.2 using crystalline form of sample; type: physicochemical
# [37] = Solubility of the compound in acetate at pH 4.6 using crystalline form of sample; type: physicochemical
# [38] = Solubility of the compound in FaSSIF; type: physicochemical
# Cytochrome P450 3A4 [39] = molecular target: T1, Cytochrome P450 3A4; test: Time dependent inhibition of CYP3A4 (unknown origin) using MDZ as substrate measured at 30 mins; type: ADME
# Cytochrome P450 3A4 [40] = molecular target: T1, Cytochrome P450 3A4; test: Time dependent inhibition of CYP3A4 (unknown origin) using TST as substrate measured at 5 mins; type: ADME
# T1 sequence (P08684 whole entry): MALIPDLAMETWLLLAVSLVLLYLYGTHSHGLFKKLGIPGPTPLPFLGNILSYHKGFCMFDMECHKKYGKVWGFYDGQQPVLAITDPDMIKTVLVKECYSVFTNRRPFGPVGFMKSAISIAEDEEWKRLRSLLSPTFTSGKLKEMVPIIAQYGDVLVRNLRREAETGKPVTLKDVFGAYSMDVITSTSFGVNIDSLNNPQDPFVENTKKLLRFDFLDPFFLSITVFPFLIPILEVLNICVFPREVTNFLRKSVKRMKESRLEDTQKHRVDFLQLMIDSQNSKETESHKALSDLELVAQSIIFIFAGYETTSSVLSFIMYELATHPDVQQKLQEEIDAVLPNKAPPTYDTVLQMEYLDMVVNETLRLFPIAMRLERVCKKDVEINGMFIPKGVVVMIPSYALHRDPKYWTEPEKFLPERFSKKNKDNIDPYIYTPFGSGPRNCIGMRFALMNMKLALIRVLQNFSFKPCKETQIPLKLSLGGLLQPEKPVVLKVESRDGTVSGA
# Sequence of ATP-binding cassette sub-family C member 2 (Q92887 whole entry): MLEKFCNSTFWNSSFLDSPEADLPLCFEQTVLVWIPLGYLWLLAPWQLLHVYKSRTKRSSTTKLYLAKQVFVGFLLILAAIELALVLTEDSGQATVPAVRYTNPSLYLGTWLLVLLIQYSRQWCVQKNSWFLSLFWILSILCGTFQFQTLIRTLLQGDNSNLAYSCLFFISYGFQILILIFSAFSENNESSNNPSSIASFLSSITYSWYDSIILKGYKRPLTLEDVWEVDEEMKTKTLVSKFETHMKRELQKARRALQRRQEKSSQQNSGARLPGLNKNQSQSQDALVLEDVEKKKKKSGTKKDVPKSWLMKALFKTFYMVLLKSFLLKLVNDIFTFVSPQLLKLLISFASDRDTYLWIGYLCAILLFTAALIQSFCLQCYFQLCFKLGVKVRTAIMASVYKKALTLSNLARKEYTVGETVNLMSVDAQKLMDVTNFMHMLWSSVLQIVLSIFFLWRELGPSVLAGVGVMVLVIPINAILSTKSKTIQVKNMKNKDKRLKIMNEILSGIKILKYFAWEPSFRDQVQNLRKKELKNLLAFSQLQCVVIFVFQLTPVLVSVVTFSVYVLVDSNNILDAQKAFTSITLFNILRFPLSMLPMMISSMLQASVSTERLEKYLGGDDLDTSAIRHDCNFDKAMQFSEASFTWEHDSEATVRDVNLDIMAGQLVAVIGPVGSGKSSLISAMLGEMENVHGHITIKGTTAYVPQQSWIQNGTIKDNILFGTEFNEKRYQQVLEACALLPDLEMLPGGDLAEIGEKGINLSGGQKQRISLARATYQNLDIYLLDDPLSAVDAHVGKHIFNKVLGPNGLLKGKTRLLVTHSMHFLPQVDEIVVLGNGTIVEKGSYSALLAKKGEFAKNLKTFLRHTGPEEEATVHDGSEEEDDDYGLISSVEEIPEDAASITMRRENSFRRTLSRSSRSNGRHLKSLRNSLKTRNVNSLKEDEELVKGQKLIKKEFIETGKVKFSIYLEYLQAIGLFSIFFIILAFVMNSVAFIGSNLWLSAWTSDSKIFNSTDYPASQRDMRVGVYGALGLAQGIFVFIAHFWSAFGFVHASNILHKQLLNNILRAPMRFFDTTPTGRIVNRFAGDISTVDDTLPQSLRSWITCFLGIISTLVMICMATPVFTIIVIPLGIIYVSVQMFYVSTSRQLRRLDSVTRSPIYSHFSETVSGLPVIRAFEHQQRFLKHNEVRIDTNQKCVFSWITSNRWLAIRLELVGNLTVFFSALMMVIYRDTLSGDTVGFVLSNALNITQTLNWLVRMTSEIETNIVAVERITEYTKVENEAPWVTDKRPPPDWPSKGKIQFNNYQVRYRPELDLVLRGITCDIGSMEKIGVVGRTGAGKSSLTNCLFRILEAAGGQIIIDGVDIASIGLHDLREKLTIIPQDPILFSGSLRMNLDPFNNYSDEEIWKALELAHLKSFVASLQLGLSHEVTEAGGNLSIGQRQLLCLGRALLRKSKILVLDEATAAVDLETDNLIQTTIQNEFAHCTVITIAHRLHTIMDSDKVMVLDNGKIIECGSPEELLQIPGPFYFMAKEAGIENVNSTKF
# Sequence of Sodium-dependent noradrenaline transporter (P23975 whole entry): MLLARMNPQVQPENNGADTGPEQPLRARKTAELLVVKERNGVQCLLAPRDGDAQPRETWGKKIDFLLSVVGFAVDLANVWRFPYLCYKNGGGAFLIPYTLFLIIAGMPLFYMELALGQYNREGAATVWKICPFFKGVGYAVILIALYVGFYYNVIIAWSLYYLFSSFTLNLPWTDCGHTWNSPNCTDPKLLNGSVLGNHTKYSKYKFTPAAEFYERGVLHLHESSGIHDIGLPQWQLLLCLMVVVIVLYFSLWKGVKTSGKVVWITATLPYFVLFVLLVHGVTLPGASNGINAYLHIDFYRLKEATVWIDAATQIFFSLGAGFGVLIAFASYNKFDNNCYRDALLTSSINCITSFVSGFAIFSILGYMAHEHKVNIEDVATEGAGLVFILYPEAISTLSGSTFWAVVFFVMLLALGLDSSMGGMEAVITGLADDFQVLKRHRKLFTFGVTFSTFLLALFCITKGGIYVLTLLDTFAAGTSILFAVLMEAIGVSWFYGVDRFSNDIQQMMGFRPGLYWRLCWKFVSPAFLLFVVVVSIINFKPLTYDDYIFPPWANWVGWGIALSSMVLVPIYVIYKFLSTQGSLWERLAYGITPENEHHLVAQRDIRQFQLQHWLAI
# Sequence of BMP-2-inducible protein kinase (Q9NSY1 whole entry): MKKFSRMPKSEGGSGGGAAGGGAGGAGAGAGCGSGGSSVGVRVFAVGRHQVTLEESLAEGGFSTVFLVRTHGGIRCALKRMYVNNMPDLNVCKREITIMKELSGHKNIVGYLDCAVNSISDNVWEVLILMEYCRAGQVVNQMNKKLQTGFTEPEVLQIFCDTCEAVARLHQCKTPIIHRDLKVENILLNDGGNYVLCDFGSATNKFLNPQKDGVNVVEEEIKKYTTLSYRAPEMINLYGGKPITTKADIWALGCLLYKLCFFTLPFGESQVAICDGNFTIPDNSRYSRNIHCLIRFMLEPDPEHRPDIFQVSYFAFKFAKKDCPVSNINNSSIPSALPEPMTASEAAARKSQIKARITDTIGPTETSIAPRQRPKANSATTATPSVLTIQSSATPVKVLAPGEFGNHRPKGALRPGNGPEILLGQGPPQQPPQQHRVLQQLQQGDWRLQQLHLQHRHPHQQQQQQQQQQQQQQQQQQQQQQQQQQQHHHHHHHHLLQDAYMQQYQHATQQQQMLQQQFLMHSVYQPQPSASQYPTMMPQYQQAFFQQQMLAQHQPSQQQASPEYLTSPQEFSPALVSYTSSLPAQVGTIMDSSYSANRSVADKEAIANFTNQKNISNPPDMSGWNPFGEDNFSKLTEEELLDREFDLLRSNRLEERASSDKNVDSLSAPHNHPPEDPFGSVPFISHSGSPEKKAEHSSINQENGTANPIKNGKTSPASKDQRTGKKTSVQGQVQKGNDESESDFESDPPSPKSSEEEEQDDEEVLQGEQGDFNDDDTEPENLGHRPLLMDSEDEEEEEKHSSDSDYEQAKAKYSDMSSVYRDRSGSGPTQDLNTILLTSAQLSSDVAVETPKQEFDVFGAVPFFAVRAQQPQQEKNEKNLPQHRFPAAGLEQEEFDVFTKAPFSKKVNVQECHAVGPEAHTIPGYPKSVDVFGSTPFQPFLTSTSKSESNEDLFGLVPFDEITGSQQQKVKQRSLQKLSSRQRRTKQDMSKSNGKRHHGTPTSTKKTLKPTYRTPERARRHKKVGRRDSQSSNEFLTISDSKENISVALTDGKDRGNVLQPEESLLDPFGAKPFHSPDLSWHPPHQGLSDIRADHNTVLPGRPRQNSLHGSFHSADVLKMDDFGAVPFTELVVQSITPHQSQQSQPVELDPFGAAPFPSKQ
# Sequence of MAP kinase-interacting serine/threonine-protein kinase 2 (Q9HBH9 whole entry, looked up): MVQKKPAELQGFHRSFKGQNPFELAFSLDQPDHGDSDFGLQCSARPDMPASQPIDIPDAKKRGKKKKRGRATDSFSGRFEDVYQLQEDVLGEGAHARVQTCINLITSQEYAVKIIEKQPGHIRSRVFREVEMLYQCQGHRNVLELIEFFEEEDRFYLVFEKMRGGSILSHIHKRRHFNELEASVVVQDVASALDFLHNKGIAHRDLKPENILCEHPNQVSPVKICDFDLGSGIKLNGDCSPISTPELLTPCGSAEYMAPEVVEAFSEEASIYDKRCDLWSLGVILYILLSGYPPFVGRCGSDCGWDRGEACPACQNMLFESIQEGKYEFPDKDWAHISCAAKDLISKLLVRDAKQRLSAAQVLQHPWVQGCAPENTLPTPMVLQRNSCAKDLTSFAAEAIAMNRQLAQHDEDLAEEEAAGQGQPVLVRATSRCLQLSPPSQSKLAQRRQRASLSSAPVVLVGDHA
# Sequence of Cytochrome P450 2B6 (P20813 whole entry): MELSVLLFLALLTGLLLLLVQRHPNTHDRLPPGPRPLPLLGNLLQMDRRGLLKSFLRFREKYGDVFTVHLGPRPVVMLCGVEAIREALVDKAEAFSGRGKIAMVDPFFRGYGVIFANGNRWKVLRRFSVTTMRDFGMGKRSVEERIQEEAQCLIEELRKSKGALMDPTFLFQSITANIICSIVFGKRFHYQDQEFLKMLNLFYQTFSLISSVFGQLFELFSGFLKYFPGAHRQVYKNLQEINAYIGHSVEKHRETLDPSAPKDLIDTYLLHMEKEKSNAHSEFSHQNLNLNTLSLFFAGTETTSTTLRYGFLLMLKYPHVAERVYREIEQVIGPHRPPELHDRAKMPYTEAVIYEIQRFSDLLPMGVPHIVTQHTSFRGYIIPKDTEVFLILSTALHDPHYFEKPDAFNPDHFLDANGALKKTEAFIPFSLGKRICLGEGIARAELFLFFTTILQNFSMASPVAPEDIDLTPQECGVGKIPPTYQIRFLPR
smiles,measurement,setting,value
CC(C)C[C@](C)(N)COc1ccc(-c2ccnc(C(F)F)c2)nc1C(F)F [PILAVAPADIN],Kp at 5.75 h,[1],23
same,Kp at 5.75 h,[2],19
same,"remaining at 10 min, 0.5 µM",Cytochrome P450,87%
same,"fraction unbound at 5 h, 10 µM",[3],0.1
same,Papp at 4 h,[4],72.4 ×10⁻⁶ cm/s
same,Activity,Aorta,42%
same,"fraction unbound at 5 h, 10 µM",[5],0.053
same,half-life,[6],> 2 h
same,half-life,[7],0.212 h
same,IC50,Cytochrome P450 2B6,> 20000 nM
same,IC50,Cytochrome P450 3A4 [8],> 20000 nM
same,IC50,Cytochrome P450 3A4 [9],> 20000 nM
same,IC50,[10],> 30000 nM
same,IC50,[11],> 30000 nM
same,IC50,[12],390 nM
same,Activity,Rattus norvegicus [13],60%
same,concentration at 5.75 h,[14],214 nM
same,Occ,[15],37%
same,Occ,[16],96%
same,Cmax,[17],25 nM
same,Cmax,[18],366 nM
same,Kp at 5.5 h,[19],8
same,Kp at 5.5 h,[20],7
same,Efficacy,Rattus norvegicus [21],63%
same,concentration at 5.25 h,[22],16100 nM
same,Kp at 5.25 h,[23],20
same,Activity,[24],Non-Toxic
same,Cmax,[25],260 ng/mL
same,AUC(0-inf),[26],880 ng·h/mL
same,AUC(0-inf),[27],1630 ng·h/mL
same,AUC(0-inf),[28],270 ng·h/mL
same,half-life,[29],8.7 h
same,clearance,[30],41.2 mL/min/kg
same,Vd,[31],19 L/kg
same,IC50,[32],1900 nM
same,IC50,[33],800 nM
same,IC50,[34],410 nM
same,inhibition,[35],Active
same,solubility thermodynamic,[36],2000 µg/mL
same,solubility thermodynamic,[37],> 10000 µg/mL
same,solubility,[38],700 µg/mL
same,IC50,Cytochrome P450 3A4 [39],> 40000 nM
same,IC50,Cytochrome P450 3A4 [40],> 40000 nM
